This is an account of results in patent publication EP1997826A2, “Synthetic ligands for immunoglobulins and pharmaceutical compositions containing them” (Tecnogen S.p.A., priority 2007, dated 2008).

The subject of assay [1] is female mice of the Balb/c strain. The format is in vivo, mouse. The settings on record: for dose producing 50% inhibition of the local allergic reaction: mouse, intraperitoneally; for Inhibition of skin reaction (%): 30 minutes before antigen. As for the experimental part: Cutaneous passive anaphylaxis on the mouse ear was induced according to the procedure described by Inagaki et al., Int. Arch. Allergy Appl. Immunol. 1985, 78:113-117. Rat ascitic fluid containing specific IgEs against the ovalbumin antigen was injected in the ear of female mice of the Balb/c strain. Ascitic fluid at different dilutions (5-10-20 times in PBS) was applied by intradermal injections at a volume of 10 µl, permitting the IgEs present in the ascitic fluid to bind to the FcεRs of the local mast cells, sensitizing them. After 48 hours, 0.25 mg of ovalbumin and Evans Blue dye at a concentration of 1.8%, dissolved in 70 µl of PBS, were injected intravenously. After 30 minutes, the appearance, on the mouse ear, of stained areas in the dermis, with extent and intensity of staining proportional to the quantity of antigen-specific IgEs injected with the ascitic fluid, was observed. The experiment included a negative control, represented by the intradermal injection of 10 µl of PBS without ascitic fluid, and there was no corresponding appearance of staining. The mice were sacrificed and the ears were removed for extraction and measurement of the dye discharged in the skin reaction. Each ear was dissolved in 0.5 ml of 1 M KOH, incubating at 37°C for 16 hours. After incubation, 2 ml of a mixture of 0.6M phosphoric acid and acetone in the ratio 5:13 (v:v) was added. The sample was then stirred and filtered, and finally the amount of dye was determined with a spectrophotometer, taking readings at 620 nm. On the basis of the results obtained in the IgE-FcER linear binding assay, selecting as reference point the value of dilution of the ascitic fluid at which the most intense inflammatory reaction was observed, an assay of inhibition of the allergic reaction was performed using peptide IB and the comparative peptide. As described previously, intradermal injections of 10 µl of ascitic fluid, diluted 20 times in PBS, were applied to the ear lobe of a group of Balb/c mice, permitting the IgEs present in the ascitic fluid to bind to the FcεRs of the local mast cells, sensitizing them. After two days, various amounts of the peptides under investigation were dissolved in 100 µl of PBS and administered intraperitoneally to the sensitized mice. In particular, doses corresponding to 0.5 - 1 - 5 - 10 - 50 mg of peptide per kg of body weight of the mouse were used. 100 µl of PBS was injected as negative control. After 30 minutes the mice received the intravenous injection of the solution of ovalbumin and Evans Blue dye.

For assay [2], the system named is immunoglobulins (IgG, IgM, IgA and IgE). As to the kind of experiment: affinity chromatography of raw murine serum on peptide immobilized on CH-Sepharose-4B. In kind it is binding. The settings on record: Western Blot, albumin not retained. (A western blot detects proteins with antibodies after separation by electrophoresis.)
For assay [3] the test system is unchanged. As to the kind of experiment: affinity chromatography of raw human serum on peptide immobilized on CH-Sepharose-4B. In kind it is binding. The settings on record: Western Blot, albumin not retained. As for the experimental part:
The peptide of formula (IB) prepared in Example 1 (10 mg) was dissolved in 5 ml of aqueous solution of sodium bicarbonate 0.1 M, NaCl 0.5 M, pH 8.5 and then added to 0.5 g of activated resin CH-Sepharose-4B (Amersham Biosciences, Uppsala, Sweden, Cat. No. 17-0490-01), a preactivated support for affinity chromatography for the direct coupling of peptides and proteins. The suspension was stirred for 24 hours and the extent of coupling was monitored by taking samples of the reaction mixture, at various times, followed by analysis by RP-HPLC.
Approximately 90-95% of the initial peptide is found to be bound covalently to the resin after 24 hours. The derivatized resin is incubated with 0.1 M Tris, pH 8.5 to block any sites of the resin that are still reactive, and is then packed in a glass column 100 x 0.6 cm I.D. with a variable piston (OMNIFIT, Cat. No. 006CC-06-10-FF).
For the purification of immunoglobulins from serum, the column was equilibrated with a buffer 50 mM Bis-Tris (Sigma, Cat. No. B9754), pH 6.5, to a flow of 1 ml/min, monitoring the eluent at 280 nm. Raw rabbit serum (Sigma, Cat, No. R9133) was loaded in the column and, after elution of the material that was not bound, the eluent was changed to acetic acid 0.1 M, pH 3.0, for elution of the adsorbed material. […]

The test system of assay [4] is female mice of the Balb/c strain. In kind it is in vivo, mouse. As for the experimental part: Active cutaneous anaphylaxis on the mouse ear was induced according to the procedure described by Inagaki et al., Japan. J. Pharmacol. 1992, 59:201-208. Female mice of the Balb/c strain were immunized with the ovalbumin antigen in the presence of the adjuvant aluminium hydroxide gel (alum). The immunizations were carried out by intraperitoneal administration of 25 µg of ovalbumin and 1 mg of alum dissolved in 200 µl of PBS. A control group received intraperitoneal injections that only contained 1 mg of alum dissolved in 200 µl of PBS. […] After 30 minutes, the appearance, on the mouse ear, of stained areas in the dermis, with extent and intensity of staining proportional to the quantity of allergen injected, was observed. […] The sample was then stirred and filtered, and finally the amount of dye was determined with a spectrophotometer, taking readings at 620 nm. […] Extraction and quantification of the Evans Blue dye, discharged in the local inflammatory reaction, were carried out as described previously.

Where two headings read alike, the source gives them in different places.

For the molecule `C[C@H](O)[C@@H](NC(=O)[C@H](N)CCCNC(=N)N)C(=O)N[C@H](Cc1ccc(O)cc1)C(=O)NCCCC[C@H](NC(=O)[C@@H](Cc1ccc(O)cc1)NC(=O)[C@H](NC(=O)[C@H](N)CCCNC(=N)N)[C@H](C)O)C(=O)NCCCC[C@H](NC(=O)[C@H](CCCCNC(=O)[C@@H](Cc1ccc(O)cc1)NC(=O)[C@H](NC(=O)[C@H](N)CCCNC(=N)N)[C@H](C)O)NC(=O)[C@@H](Cc1ccc(O)cc1)NC(=O)[C@H](NC(=O)[C@H](N)CCCNC(=N)N)[C@H](C)O)C(=O)NCC(=O)O` [Comparative peptide, (H-D-Arg-D-Thr-D-Tyr-)4-L-Lys2-L-Lys-Gly-OH, reference compound], the “dose producing 50% inhibition of the local allergic reaction” value in assay [1] was “about 7 mg/kg”.
Take “(H-L-Cys(p-MeOBzl)-D-Arg-D-Thr-D-Tyr)4-L-Lys2-L-Lys-L-Lys-OH [Peptide IB]”: the “retention of immunoglobulins by the peptide column” value in assay [2] is “able to retain the immunoglobulins (IgG, IgM, IgA and IgE)”; in assay [3], “able to retain the immunoglobulins (IgG, IgM, IgA and IgE)”. Besides, the “Inhibition of skin reaction (%)” value in assay [4] (Dose of Peptide 100 mg/kg intraperitoneally, 30 minutes before ovalbumin) was found to be 100%; in assay [1] (Dose of Peptide 0.5 mg/kg intraperitoneally), 10%; in assay [1] (Dose of Peptide 1.0 mg/kg intraperitoneally), 50%; in assay [1] (Dose of Peptide 5.0 mg/kg intraperitoneally) it was 65%; in assay [1] (Dose of Peptide 10.0 mg/kg intraperitoneally), 71%; in assay [1] (Dose of Peptide 50.0 mg/kg intraperitoneally), 85%. Also, the “activity greater than the activity of the comparative peptide” value in assay [4] (mouse ear active cutaneous anaphylaxis) is on record as “approx. 15 times”; in assay [1] (mouse ear passive cutaneous anaphylaxis) it was “about 7 times”. Also, the “dose producing 50% inhibition of the local allergic reaction” value in assay [1] stood at 1 mg/kg.
